These results are taken from patent US20240132498A1, “CRYSTALLINE FORMS OF 5-(3,4-DIFLUOROBENZYL)-8-((1R,4R)-4-METHYLCYCLOHEXYL)-6,9-DIOXO-2,5,8-TRIAZASPIRO[3.5]NONANE-2-CARBALDEHYDE” (Cytokinetics, Incorporated, priority 2022, published 2024).

Usually clearance stands for the rate of elimination divided by the concentration. Usually half-life stands for the time in which the quantity being followed falls by half.

Series [1] deals with T1, CYP3A4 (Homo sapiens, UniProt P08684).
T1 construct: from tissue; host or cells: pooled human liver microsomes
Nature of the series: Time-dependent inhibition of CYP450 enzymes in human liver microsomes: CYP3A4-T (testosterone probe). Type of series: in vitro ADME. The conditions noted are these: human, pooled human liver microsomes, CYP3A4-T (testosterone probe); for activity at 30 min, 25 µM / activity at 30 min, 50 µM: 30 minutes incubation, read-out: % Activity NADPH T30; for activity at 0 min, 25 µM / activity at 0 min, 50 µM: time zero, read-out: % Activity NADPH T0. The method, then: (§1) An assessment of the time-dependent Inhibitory Potential of the test compounds against Principal Human Cytochrome P450 Isozymes using Human Liver Microsomes was also carried out using standard methods (Grimm et al, Drug Metab. Dispos., Jul; 37(7):1355-70. doi: 10.1124/dmd.109.026716, 2009). Pooled human microsomes and selective CYP probe substrates were used for in vitro assessment of test compounds at 25 and 50 μM as time-dependent inhibitors of […] human hepatic cytochrome P450 isozymes (CYP1A2, 2B6, 2C9, 2C19, 2D6, and 3A4). LC-MS/MS was used to quantify metabolite formation. The inhibition of each P450 enzyme in human liver microsomes was measured as the percentage decrease in the activity of marker metabolite formation as measured by LC-MS/MS compared to non-inhibited controls (=100% activity) at time zero and after 30 minutes incubation. The occurrence of any time dependent inhibition was then expressed as the fold change in enzyme activity at time zero relative to the activity after 30 minutes incubation. The time dependent inhibition for the compound 5-(3,4-difluorobenzyl)-8-((1 r,4r)-4-methylcyclohexyl)-6,9-dioxo-2,5, 8-triazaspiro [3.5]nonane-2-carbaldehyde (Compound 1) against CYP1A2, […], CYP2C8, CYP2C9, CYP2C19, CYP2D6, CYP3A4-M and CYP3A4-T is shown in Table B-12.

The target of another series is T2, CYP3A4-T (Homo sapiens, UniProt P08684).
T2 construct: from tissue; host or cells: pooled human liver microsomes
Described as above. Type of series: in vitro ADME. The conditions noted are these: for (% Activity NADPH T0)/(% Activity NADPH T30): CYP3A4-T (testosterone probe); for fold change in enzyme activity (time dependent inhibition), 3A4: human liver microsomes, testosterone probe, time zero vs 30 minutes incubation, 25 and 50 μM. On the procedure:
as §1

For series [2], the target named is T1, CYP3A4. Nature of the series: Time-dependent inhibition of CYP450 enzymes in human liver microsomes: CYP3A4-M (midazolam probe). Type of series: in vitro ADME. The conditions noted are these: human, pooled human liver microsomes, CYP3A4-M (midazolam probe); for activity at 30 min, 25 µM / activity at 30 min, 50 µM: 30 minutes incubation, read-out: % Activity NADPH T30; for activity at 0 min, 25 µM / activity at 0 min, 50 µM: time zero, read-out: % Activity NADPH T0. On the procedure: as §1
A general note: Liver microsomes are vesicles of endoplasmic reticulum, rich in cytochrome P450 enzymes.

Another series deals with T3, CYP3A4-M (Homo sapiens, UniProt P08684).
T3 construct: from tissue; host or cells: pooled human liver microsomes
The description is as above. Particulars: for (% Activity NADPH T0)/(% Activity NADPH T30): CYP3A4-M (midazolam probe); for fold change in enzyme activity (time dependent inhibition), 3A4: human liver microsomes, midazolam probe, time zero vs 30 minutes incubation, 25 and 50 μM. Type of series: in vitro ADME. The method, then:
as §1

A short description of series [3]: Mouse single dose pharmacokinetics. The series is classed as in vivo. Particulars: plasma, iv, 0.5 mg/kg, male C57BL/6 mice; for Vd: read-out: Vss. On the procedure:
Male C57BL/6 mice (18-25 g, 6-8 weeks old) were obtained from Zhejiang Vital River Laboratory Animal Technology Co., Ltd. All animals for IV administration had free access to food and water. The IV dosing was performed through tail vein. The IV dose solution for the Test Articles was prepared in 10% DMA/20% PG/70% HPOCD solution (40% w/v aqueous HPOCD) at a concentration of 0.1 mg/mL. The oral dosing suspension was prepared by suspending Test Article in 0.5% HPMC/0.1% Tween 80 in water at a concentration 0.2 mg/mL. Concentrations of IV and PO doses were measured at the end of the study. Pharmacokinetic (PK) parameters were calculated using the nominal dose values if the measured values were within 20% of the nominal values. A group of 15 mice received the IV dose where the volume was 5 mL/kg. Another group of 15 mice received by oral gavage of Test Article at 1 mg/kg. The oral dose volume was 5 mL/kg. Sparse blood samples were collected from groups of three mice via retro-orbital bleeding, placed into a K2EDTA microtainer tube and maintained on ice until centrifugation to obtain plasma. Each designated group of mice were bled at two-time points. The time points were predose (PO only), 5 (IV only), 15, 30 minutes, 1, 2, 4, 6, 8 and 24 hours postdose. Blood samples were centrifuged and the collected plasma was stored at −80° C. until analysis. Plasma samples were analyzed for Test Article concentrations using an LC/MS/MS method. Briefly, a 50 p L aliquot of each plasma sample was mixed with 100 μL of acetonitrile that contained an internal standard (IS). The mixture was vortexed and centrifuged. Ten (10) p L of the resulting solution was injected onto a reverse-phase C18 column and the resultant peaks detected on a LC/MS/MS equipped with a turbo ionspray ionization source. Sample concentrations below the limit of quantification (BLQ) were treated as zero for PK calculations. Composite PK parameters were estimated from a maximum of two sampling points per mouse and three mice per sampling point and the sparse data option of WinNonlin was used for noncompartmental analysis of the concentration-time data (Phoenix WinNonLin software, version 64; Pharsight, Mountain View, CA). The elimination rate constant (k) was calculated as the absolute value of the slope of the linear regression of logarithm of the concentration versus time for the last three data points of the concentration-time profiles. Apparent elimination half-life (t½) values were calculated as 1n(2)/k. Area under the concentration-time curve (AUC) values were estimated using linear trapezoidal method. AUC values were calculated from the dosing time to the last measurable concentration. AUC∞ values were calculated as the sum of the corresponding AUC and the ratio of the last detectable concentration divided by k. Plasma clearance (CL) was calculated from Dose/AUC. Mean resident time (MRT) was estimated by moment analysis. Volume of distribution at steady state (Vss) was calculated from MRT∞×CL. Maximum concentration (Cmax) and time to reach Cmax (tmax) were recorded as observed. Bioavailability was calculated dAUC∞,po/dAU∞.iv×100% where dAUC was the dose normalized AUC value. Compounds tested were prepared in accordance with the synthetic procedures described herein.

The nature of series [4]: Monkey cassette dosing IV pharmacokinetics. Type of series: in vivo. Particulars: male, plasma.

T3 sequence (P08684 whole entry): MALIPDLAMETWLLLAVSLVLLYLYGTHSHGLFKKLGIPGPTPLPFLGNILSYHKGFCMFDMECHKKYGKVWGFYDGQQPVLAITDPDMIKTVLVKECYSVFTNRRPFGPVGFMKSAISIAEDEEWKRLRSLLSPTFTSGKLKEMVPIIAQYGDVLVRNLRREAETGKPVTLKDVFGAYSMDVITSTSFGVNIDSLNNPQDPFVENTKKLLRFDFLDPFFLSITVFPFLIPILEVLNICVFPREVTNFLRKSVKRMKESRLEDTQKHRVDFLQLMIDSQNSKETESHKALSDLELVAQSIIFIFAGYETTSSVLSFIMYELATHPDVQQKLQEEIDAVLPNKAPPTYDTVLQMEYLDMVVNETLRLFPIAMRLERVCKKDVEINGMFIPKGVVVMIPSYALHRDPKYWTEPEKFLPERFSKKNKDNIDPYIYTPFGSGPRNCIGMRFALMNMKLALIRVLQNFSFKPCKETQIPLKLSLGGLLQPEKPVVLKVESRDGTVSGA
T1 sequence (P08684 whole entry): as above
T2 sequence (P08684 whole entry): as above

`O=C1[C@H](C2COC2)N(Cc2ccc(C(F)(F)F)cc2)C(=O)CN1c1ncc(Cl)cc1F` [Comparator C, (S)-1-(5-chloro-3-fluoropyridin-2-yl)-3-(oxetan-3-yl)-4-(4-(trifluoromethyl)benzyl)piperazine-2,5-dione, reference compound]: on CYP3A4 [1], the activity at 30 min, 25 µM stood at 23%; the activity at 0 min, 25 µM was determined as 41%; the activity at 30 min, 50 µM was determined as 19%; the activity at 0 min, 50 µM is 35%. The “(% Activity NADPH T0)/(% Activity NADPH T30)” value at CYP3A4-T (25 μM) amounted to 1.8. For the same compound, at CYP3A4-T (50 μM), the “(% Activity NADPH T0)/(% Activity NADPH T30)” value was 1.8. Besides, at CYP3A4-T, the “fold change in enzyme activity (time dependent inhibition), 3A4” value was over 1.5 fold. In addition, on CYP3A4 [2], the activity at 30 min, 25 µM came to 48%; the activity at 0 min, 25 µM is 75%; the activity at 30 min, 50 µM was found to be 33%; the activity at 0 min, 50 µM was 57%. In addition, at CYP3A4-M (25 μM), the “(% Activity NADPH T0)/(% Activity NADPH T30)” value was 1.6. For the same compound, the “(% Activity NADPH T0)/(% Activity NADPH T30)” value on CYP3A4-M (50 μM) is 1.7. Further, the “fold change in enzyme activity (time dependent inhibition), 3A4” value on CYP3A4-M is listed as over 1.5 fold. For the same compound, in series [3], the clearance came out at 4.67 mL/min/kg, the half-life is 2.6 h and the Vd was 1.39 L/kg.
Regarding `O=CN1CC2(C1)C(=O)N([C@H]1CC[C@H](C(F)F)CC1)CC(=O)N2Cc1ccc(C(F)(F)F)cc1` [Comparator E, 8-((1r,4r)-4-(difluoromethyl)cyclohexyl)-6,9-dioxo-5-(4-(trifluoromethyl)benzyl)-2,5,8-triazaspiro[3.5]nonane-2-carbaldehyde], in series [3], the clearance was found to be 11.6 mL/min/kg, the half-life was 2.8 h and the Vd amounted to 3.28 L/kg.
With `C[C@H]1CC[C@H](N2CC(=O)N(Cc3ccc(F)c(F)c3)C3(CN(C=O)C3)C2=O)CC1` [Compound 1, 5-(3,4-difluorobenzyl)-8-((1r,4r)-4-methylcyclohexyl)-6,9-dioxo-2,5,8-triazaspiro[3.5]nonane-2-carbaldehyde], the figures for the activity at 30 min, 25 µM on CYP3A4 [1] and on CYP3A4 [2] were 90% and 88%, respectively. Besides, the activity at 0 min, 25 µM came out at 80% at CYP3A4 [1] and 70% at CYP3A4 [2]. Besides, the activity at 30 min, 50 µM stood at 98% on CYP3A4 [1] and 78% at CYP3A4 [2]. Further, the activity at 0 min, 50 µM was determined as 83% at CYP3A4 [1] and 57% at CYP3A4 [2]. The “(% Activity NADPH T0)/(% Activity NADPH T30)” value was determined as 0.9 on CYP3A4-T (25 μM), 0.8 at CYP3A4-T (50 μM), 0.8 on CYP3A4-M (25 μM) and 0.7 at CYP3A4-M (50 μM). The “fold change in enzyme activity (time dependent inhibition), 3A4” value on CYP3A4-T and at CYP3A4-M was at most 1.2 fold throughout. For the same compound, the results for the clearance in series [3] and in series [4] were 28.4 mL/min/kg and 13.1 mL/min/kg, respectively. For the same compound, the half-life in series [3] is 1.77 h; in series [4], 8.69 h. In addition, the Vd turned out to be 4.2 L/kg in series [3] and 8.8 L/kg in series [4] (read-out: Vss).
